Measurements taken from patent US20260091147A1, “METHOD FOR DETECTING INNATE IMMUNE ACTION IN VIVO USING GPR84-PET” (The Board of Trustees of the Leland Standford Junior …, priority 2023, published 2026).
Where “and” joins values, the source holds several entries; their conditions need not be identical. Equal entries are not always repeated.

Tests used:
GPR84 [1] = biological target: T1, GPR84 (Homo sapiens, UniProt Q9NQS5); test: In vitro autoradiography of human colon sections, active UC vs healthy; assay type: binding; design: from tissue; host or cells: human colon sections, active ulcerative colitis and matched healthy samples; conditions: for tracer binding in active UC colon tissue vs matched healthy samples: 5 μm sections; for tracer signal in UC colon tissue after pre-blocking with GLPG1205: 1000× GLPG1205 by mass
T1 sequence (Q9NQS5 whole entry): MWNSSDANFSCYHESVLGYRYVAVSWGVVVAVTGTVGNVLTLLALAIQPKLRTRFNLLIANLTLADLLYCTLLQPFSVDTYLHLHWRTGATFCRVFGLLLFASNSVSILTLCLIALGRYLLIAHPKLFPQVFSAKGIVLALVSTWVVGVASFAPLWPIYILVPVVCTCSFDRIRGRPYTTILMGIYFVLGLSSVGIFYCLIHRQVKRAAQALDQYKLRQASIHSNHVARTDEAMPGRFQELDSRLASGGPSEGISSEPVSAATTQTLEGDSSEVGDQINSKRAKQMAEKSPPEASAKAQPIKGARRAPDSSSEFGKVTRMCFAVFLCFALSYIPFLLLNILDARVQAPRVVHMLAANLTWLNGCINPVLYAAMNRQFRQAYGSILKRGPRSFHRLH
Method: To investigate alterations in GPR84 mRNA expression under pro-inflammatory conditions, quantitative polymerase-chain reaction was performed using mouse brain and human monocyte-derived macrophage cells (hMDMs) treated with lipopolysaccharides (LPS) 24 hr prior to RNA extraction. [^11C]GLPG38 and [^18F]MGX-110S were made via [^11C]methylation of the desmethyl precursor and by copper mediated [^18F]fluorination of Bpin precursor respectively. Binding specificities of both tracers were assessed using human GPR84-stably-expressing human embryonic kidney cells (HEK-293) versus control HEK-293 cells. [^11C]GLPG38 binding was also assessed in hMDMs+/−treatment with LPS. Dynamic PET/CT imaging of healthy mice was commenced just prior to injection of [^11C]GLPG38 (100-150 μCi) or [^18F]MGX-110S (60-120 μCi) to determine biodistribution and kinetics. In vitro autoradiography (ARG) of human colon sections (5 μm) was conducted to test the ability of each tracer to detect innate immune activation in active UC.

[2] = Dynamic 60 min PET/CT of healthy mice, whole-brain time activity curve; assay type: in vivo, mouse
Excerpt: A transmission scan was acquired to correct for attenuation during image reconstruction. Following PET imaging, mice were transferred to a SOFIE GNEXT PET/CT for CT acquisition. PET/CT data were co-registered and analyzed using Inveon Research Workplace software to generate images and quantify radiotracer uptake in regions of interest (ROIs). A 3D ROI was manually defined for the whole brain using CT data as anatomical reference, then applied to the full dynamic data set to generate a time activity curve (TAC).
The count densities were averaged for all volumes of interest at each time point to obtain a time-activity curve (TAC). The TACs were normalized to injected dose, as measured by a CRC-15 PET dose calibrator (Capintec Inc.), and expressed as % injected dose per gram (% ID/g), assuming 1 g/mL. CT was performed in GNEXT depth of interaction (DOI) dual-layer detector system. Scintica VivoQuant software was used to visualize radiotracer uptake and define the 3D volumes of interest. 3D maximum intensity projection (MIP) PET/CT images were created using IRW software.
On days 15-16 after EAE induction, mice were catheterized and placed on the 4-mouse scanning bed of the Sofie GNEXT PET/CT scanner.

GPR84 [3] = biological target: T1, GPR84; test: Radiotracer cell binding, hGPR84-HEK-293 vs control HEK-293 cells, with or without GLPG1205 block; assay type: cell-based; design: host or cells: HEK-293 cells, lentivirally transduced, puromycin-selected monoclonal line; conditions: for fold higher binding to hGPR84-HEK-293 cells vs control cells: 40 min incubation; for reduction of tracer binding in hGPR84-HEK293 cells by GLPG1205: co-incubation with GLPG1205 35 μM (1000× by mass), 40 min
Method: GPR84-transduced HEK-293 cells and control HEK-293 cells were plated at a concentration of 3×10^5 cells per well in media (DMEM with 10% FBS and 1% anti-anti) into three 12-well plates 16-24 hr prior to the cell binding assay. Once cells reached ˜90% confluency, the radiotracer was prepared. […] The radiotracer was diluted in DMEM without FBS or antibiotic to yield a 30 mL solution where the amount of activity was 25 μCi in 500 μL. The first 12-well plate was incubated for 20 minutes at 37° C. and 5% CO2 in air while the next was incubated for 40 minutes at the same conditions. Cells were subsequently washed with PBS, trypsinized, resuspended in DMEM+10% FBS, and pipetted into gamma counting tubes at 500 μL volume. Radioactivity levels bound to cells were measured in a gamma counter (Hidex Oy, Helsinki, Finland), and cell counts were recorded using Trypan blue and an automatic cell counter to normalize radioactivity levels to cell count.
At the indicated time points, plates were placed on ice, washed three times with ice-cold phosphate-buffered saline (PBS), and trypsinized (150 μL per well) for 2 min at 37° C. The trypsin was neutralized by adding 600 μL DMEM containing 10% FBS (original cell culture media) to each well. […] Gamma counting was performed to quantitate percentage radiotracer uptake by the cells and decay-corrected radioactivity was determined (Hidex automated gamma counter). Finally, cells in each gamma counting tube were counted by using the Countess cell counter (Life Technologies). Cell binding was expressed in terms of % uptake/million cells.
GPR84-transduced HEK-293 cells and control HEK-293 cells from Creative Biogene were plated at a concentration of 3×10^5 cells per well in media (DMEM with 10% FBS and 1% anti-anti) into a 12-well plate for 16-24 hr. HEK-293 cells were stably transduced via the following process from Creative Biogene: construction of pLVX-CMV-Human-GPR84-PGK-Puro lentiviral expression plasmid, lentivirus production, lentivirus transduction, puromycin selection of polyclonal stable HEK293-Human-GPR84 cells, screening of monoclonal stable HEK293-Human-GPR84 cells via limited dilution, validation using qPCR, then mycoplasma detection by PCR and Lonza kit. Once cells reached ˜90% confluency, the radiotracer was prepared. The radiotracer was diluted in DMEM without FBS or antibiotic to yield a 30 mL solution such that the amount of activity was 50 μCi/mL for ^11C or 2 μCi/mL for ^18F. […] The 12-well plate was incubated for 40 min at 37° C. and 5% CO2 in air. […] Radioactivity levels bound to cells were measured in a gamma counter (Hidex Oy, Helsinki, Finland), and cell counts were recorded using Trypan blue and an automatic cell counter to normalize radioactivity levels to cell count.

Cc1cc2c(cc1O[11CH3])CCn1c-2c(C)c(OC[C@@H]2COCCO2)cc1=O [[^11C]GLPG38]
tracer binding in active UC colon tissue vs matched healthy samples (GPR84 [1]): marked increase of binding
tracer signal in UC colon tissue after pre-blocking with GLPG1205 (GPR84 [1]): markedly attenuated
whole-brain uptake after washout, end of 60 min scan ([2]; healthy mice): 3.53 % ID/g
whole-brain uptake at 4 minutes post injection ([2]; naive wild-type mice): 9.46 % ID/g
fold higher binding to hGPR84-HEK-293 cells vs control cells (GPR84 [3]): 13.5 fold
reduction of tracer binding in hGPR84-HEK293 cells by GLPG1205 (GPR84 [3]): 90% and > 90%

O=c1nc(OC[C@@H]2COCCO2)cc2n1CCc1cc([18F])ccc1-2 [^18F-MGX-110S]
tracer binding in active UC colon tissue vs matched healthy samples (GPR84 [1]): marked increase of binding
tracer signal in UC colon tissue after pre-blocking with GLPG1205 (GPR84 [1]): markedly attenuated
time of peak brain uptake ([2]; naive mice, n=3): 0.25 min
fold higher binding to hGPR84-HEK-293 cells vs control cells (GPR84 [3]): 33.4 fold and 25 fold
reduction of tracer binding in hGPR84-HEK293 cells by GLPG1205 (GPR84 [3]): > 90%
